In data set [1] the test system is human neuroblastoma cells. Particulars: cited from earlier work.
The test system of the next data set is α-synuclein. Description: Western blot of α-synuclein protein levels in SH-SY5Y cells. The data set is classed as cell-based, human. The conditions noted are these: for basal α-synuclein expression levels: treatment alone vs control. As to the method:
(§1) Human neuroblastoma SH-SY5Y cells were grown in DMEM/F12 medium containing 10% fetal bovine serum (FBS) and 1% antibiotic/antimycotic mix. Cells were maintained at 37° C. in a saturated humidity atmosphere containing 95% air and 5% CO2.
(§2) Treated SH-SY5Y cells were washed with PBS and trypsinized to collect the cells and centrifuged at 5000 g. The pellet was washed again with PBS and homogenized in NE-PER tissue protein extraction reagent (Thermo Scientific, Rockford, Ill.) supplemented with protease and phosphatase inhibitors. Protein concentrations from the cytosolic and nuclear homogenates were determined with BCA protein assay.
(§3) Proteins (10 μg) were separated on SDS-PAGE gels, transferred to a polyvinylidene difluoride membrane (BioRad, Hercules, Calif.), and incubated with the following monoclonal antibodies: anti-TH mouse antibody (1:1000; Sigma Aldrich, Saint Louis, Mo.), anti-α-synuclein mouse antibody (1:500; Chemicon, Temecula, Calif.), anti-ERα rabbit antibody (1:500; Abcam, Cambridge, Mass.), anti-ERβ rabbit antibody (1:200; Upstate, Lake Placid, N.Y.), anti-LXRα rabbit antibody (1:500; Abcam, Cambridge, Mass.), anti-LXRβ mouse antibody (1:500; Abcam, Cambridge, Mass.).
(§4) β-actin and Lamin A were used as a gel loading control for cytosolic homogenates and nuclear homogenates respectively. The blots were developed with enhanced chemiluminescence (Immmun-star HRP chemiluminescent kit, Bio-Rad, Hercules, Calif.). Bands were visualized on a polyvinylidene difluoride membrane and analyzed by LabWorks 4.5 software on a UVP Bioimaging System (Upland, Calif.). Quantification of results was performed by densitometry and the results analyzed as total integrated densitometric values (arbitrary units).

For data set [2] the following is noted: in vivo; cited from earlier work.
Data set [3] has as its system experimental intracerebral hemorrhage. Particulars: 10 μmol.Kg^−1.day^−1 i.p.; cited from earlier work.
The subject of the next data set is TH. Description: Western blot of TH protein levels in SH-SY5Y neuroblastoma cells. The data set is classed as cell-based, human. Particulars: 24 h. Here is the method: as §1, §2, §3, §4
Another data set has as its system TH mRNA. Description: Real time RT-PCR of TH mRNA in SH-SY5Y cells. The data set is classed as cell-based, human. Particulars: 24 h. Here is the method: as §1
Total RNA was isolated and extracted from treated cells using the 5 prime “PerfectPure RNA tissue kit” (5 Prime, Inc., Gaithersburg, Md.). RNA estimation was performed using “Quant-iT RNA Assay Kit” using a Qubit fluorometer according to the manufacturer's protocol (Invitrogen, Carlsbad, Calif.). cDNA was synthesized by reverse transcribing 1 μg of extracted RNA using an “iScript cDNA synthesis kit” (BioRad, Hercules, Calif.). The oligomeric primers (Sigma, St Louis, Mo.) used to amplify the TH mRNA and α-synuclein mRNA are enumerated in Table 1. The cDNA amplification was performed using an iQ SYBR Green Supermix kit following the manufacturer's instructions (BioRad, Hercules, Calif.). The amplification was performed using an iCycler iQ Multicolor Real Time PCR Detection System (BioRad, Hercules, Calif.). The expression of specific TH and α-synuclein transcripts amplified were normalized to the expression of glyceraldehyde-3-phosphate dehydrogenase (GAPDH).

For another data set, the target named is T1, ERβ (Homo sapiens, UniProt Q92731).
T1 construct: endogenous in cells; host or cells: SH-SY5Y human neuroblastoma cells
Description: Western blot of ERβ levels in the nucleus (nuclear translocation), SH-SY5Y cells. It is filed as cell-based. The conditions noted are these: 24 h. As to the method: as §1, §2, §3, §4

In a further data set the test system is ERα/β. In words: EMSA, binding of nuclear ER to probe for the ERE half site in the TH promoter. It is filed as cell-based, human.
The next data set relates to TH promoter. Description: Dual-luciferase TH promoter assay. It is filed as cell-based, human. As to the method:
Constructs encoding ERE and TH promoter conjugated to the firefly luciferase gene were used in the study. Human neuroblastoma SH-SY5Y cells were plated in 96-well plates at a density of 2×10^4 cells/well. The cells were transfected when 80% confluent with 0.25 μg of either ERE-firefly Luciferase reporter construct, LXRE-firefly Luciferase reporter construct, or TH promotor-firefly Luciferase promoter construct. Respective non-inducible reporter constructs containing constitutively expressing Renilla luciferase were used as negative internal controls. Constitutively expressing GFP constructs were used as positive control to determine transfection efficiency. Cells were incubated for 24 hours with Opti-MEM serum free medium (Invitrogen, Carlsbad, Calif.) containing the reporter constructs dissolved in transfection reagent. After 24 hours the medium was changed and the cells were incubated in normal DMEM/F12 medium containing 10% FBS and cells were treated with the different treatment regimens. The cells were treated in triplicate and harvested 24 hours later and subjected to dual-luciferases assay. The dual-luciferase assay was performed using a “Dual-Luciferase Reporter Assay System” from Promega (Madison, Wis.). The luminescence recorded is expressed as Relative Luminescence Units (RLU) and normalized to per mg protein. Unit value was assigned to control and the magnitude of differences among the samples is expressed relative to the unit value of control cells.

Another data set concerns ARPE-19 cells. In words: ROS levels in ARPE-19 cells. The data set is classed as cell-based. The conditions noted are these: ARPE-19, 24 h, co-treatment with 27-OHC, all at 10 μM.
In another data set the test system is TNF-α. Description: TNF-α levels in ARPE-19 cells. It is filed as cell-based. Particulars: ARPE-19, 24 h, co-treatment with 27-OHC, all at 10 μM.

Molecules are shown by their SMILES.

T1 sequence (Q92731 whole entry): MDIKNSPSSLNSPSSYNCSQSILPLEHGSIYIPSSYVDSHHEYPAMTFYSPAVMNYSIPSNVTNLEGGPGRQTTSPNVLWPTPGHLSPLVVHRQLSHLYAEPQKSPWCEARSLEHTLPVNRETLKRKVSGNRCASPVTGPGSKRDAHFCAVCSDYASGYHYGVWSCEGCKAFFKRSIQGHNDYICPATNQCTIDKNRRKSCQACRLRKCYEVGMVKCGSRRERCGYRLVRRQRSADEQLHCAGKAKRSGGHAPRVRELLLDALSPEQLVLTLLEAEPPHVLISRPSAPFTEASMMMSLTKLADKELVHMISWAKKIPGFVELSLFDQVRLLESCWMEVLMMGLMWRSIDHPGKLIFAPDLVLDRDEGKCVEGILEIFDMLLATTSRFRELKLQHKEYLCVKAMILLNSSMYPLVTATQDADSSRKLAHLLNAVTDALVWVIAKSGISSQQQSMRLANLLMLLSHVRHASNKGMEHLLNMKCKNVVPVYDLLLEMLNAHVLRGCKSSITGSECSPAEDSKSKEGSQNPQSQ

`CC(C)C(O)CC[C@@H](C)[C@H]1CC[C@H]2[C@@H]3CC=C4C[C@@H](O)CC[C@]4(C)[C@H]3CC[C@]12C` (some centres unmarked) [24-OHC, 24-hydroxycholesterol]: in data set [1], the “27-OHC-induced effects on TH” value is “reverse” and the “27-OHC-induced effects on α-synuclein” value is “reverse”.

Regarding `C[C@]12CC[C@@H]3c4ccc(O)cc4C[C@@H](CCCCCCCCC[S+]([O-])CCCC(F)(F)C(F)(F)F)[C@H]3[C@@H]1CC[C@@H]2O` (some centres unmarked) [ICI 182780, Fulvestrant], the “basal α-synuclein expression levels” value in the data set on α-synuclein is listed as “no effect”.

Consider `CCC1=C(C)c2cc3[n-]c(cc4[n-]c(cc5nc(cc1n2)C(C)=C5CC)c(C)c4CCC(=O)O)c(CCC(=O)O)c3C.[Cl-].[Cl-].[Sn+4]` [SnMP, Tin-mesoporphyrin IX], for which the “blood brain barrier passage” value in data set [2] is given as “crosses”. The “protection against experimental intracerebral hemorrhage” value in [3] is recorded as “protect”.

Turning to `C[C@]12CC[C@@H]3c4ccc(O)cc4CC[C@H]3[C@@H]1CC[C@@H]2O` [estradiol, 17β-estradiol], the TH protein levels result with TH (concomitant with 10 μM 27-OHC, compared to control or 27-OHC) is recorded as “significant increase”. For the same compound, in the data set on TH (treatment alone vs control (10 μM 27-OHC, 1 nM estradiol, 10 μM GW3965, 10 μM ECHS)), the “TH protein levels / TH expression” value is given as “profound increase”. The “27-OHC-induced attenuation of TH mRNA” value with TH mRNA (concomitant with 10 μM 27-OHC) was “completely reversed”. For the same compound, in the data set on TH mRNA (treatment alone vs control), the “TH mRNA” value is on record as “increase”. In addition, the “27-OHC-induced attenuation in the nuclear translocation of ERβ” value at ERβ (concomitant with 10 μM 27-OHC) is given as “completely reduced”. For the same compound, the “nuclear translocation / nuclear levels of ERβ” value on ERβ (treatment alone vs control) is recorded as “increases”. In the data set on ERα/β, the “binding of nuclear ER to the DNA probe corresponding to the ERE-half site on the TH promoter” value is recorded as “significantly increases” and the “inhibitory effects of 27-OHC on binding of ER to the exogenous DNA probe” value is reported as “completely reverses”. Also, the “increase in basal TH promoter activity” value in the data set on TH promoter (SH-SY5Y transfected with TH promoter-luciferase, 24 h) is on record as 2.5 fold. In addition, the “27-OHC-induced reduction of TH promoter activity” value with TH promoter (concomitant with 27-OHC) is given as “completely reversed”. In addition, the “effect of ECHS on 27-OHC-induced increase in α-synuclein expression” value in the data set with α-synuclein (estradiol added to 27-OHC+ECHS) is given as “does not alter”. In addition, in the data set on α-synuclein (in combination with ECHS), the α-synuclein expression result was “no effect”. In addition, the “basal α-synuclein expression levels” value with α-synuclein was “no effect”. Further, the “27-OHC-induced increase in ROS levels” value in the data set with ARPE-19 cells is reported as “not”. Moreover, in the data set with TNF-α, the “27-OHC-induced increase in TNF-α levels” value is on record as “reduced”.

Values taken from US20150031655A1, “COMBINATION OF LIVER X RECEPTOR MODULATOR AND ESTROGEN RECEPTOR MODULATOR FOR THE TREATMENT OF AGE-RELATED DISEASES” (UNIVERSITY OF NORTH DAKOTA, priority 2011, published 2015).
